Source: the supplement of paper PMC10331698
± gives the standard deviation of the averaged measurements.

What was measured:
Assay in all cases: level (log10 ratio to DMSO vehicle control); higher = higher biomarker level / cell amount than vehicle control
[1] = compound: CO[Si](C)(CCC(F)(F)C(F)(F)C(F)(F)C(F)(F)C(F)(F)C(F)(F)F)OC [Dimethoxymethyl((perfluorohexyl)ethyl)silane] (in DMSO)
Description: (§1)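 BioMAP Diversity Plus panel of 12 human primary cell co-culture systems (3C, 4H, LPS, SAg, BT, BF4T, BE3C, CASM3C, HDF3CGF, KF3CT, MyoF, Mphg). Compounds were added 1 h before stimulation and left for 24 h (MyoF 48 h; BT 72 h for soluble read-outs or 6 d for IgG). Biomarkers were read by ELISA, cytotoxicity by SRB, PBMC viability and proliferation by Alamar Blue. Each well value was divided by the mean of 8 DMSO control wells on the same plate and log10 transformed; duplicate blinded samples were tested at 4 concentrations.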

[2] = compound: O=C(O)C(F)(OC(F)(F)C(F)(OC(F)(F)C(F)(OC(F)(F)C(F)(F)C(F)(F)F)C(F)(F)F)C(F)(F)F)C(F)(F)F [Perfluoro-(2,5,8-trimethyl-3,6,9-trioxadodecanoic)acid] (in DMSO)
Description: as §1

[3] = compound: NS(=O)(=O)C(F)(F)C(F)(F)C(F)(F)C(F)(F)C(F)(F)C(F)(F)C(F)(F)C(F)(F)F [Perfluorooctanesulfonamide] (in DMSO)
Description: as §1

[4] = compound: O=S(=O)(O)C(F)(F)C(F)(F)C(F)(F)C(F)(F)C(F)(F)C(F)(F)C(F)(F)F [Perfluoroheptanesulfonic acid] (in DMSO)
Description: as §1

[5] = compound: C[C@@H]1C[C@H]2[C@@H]3CCC4=CC(=O)C=C[C@]4(C)[C@@]3(F)[C@@H](O)C[C@]2(C)[C@@]1(O)C(=O)COP(=O)(O)O [Dexamethasone sodium phosphate] (in DMSO)
Description: as §1

[6] = compound: O=S(=O)(O)CCC(F)(F)C(F)(F)C(F)(F)C(F)(F)C(F)(F)C(F)(F)C(F)(F)C(F)(F)F [8:2 Fluorotelomer sulfonic acid] (in DMSO)
Description: as §1

| Test System | level (log10) ([1]; 6700 nM) | level (log10) ([1]; 20000 nM) | level (log10) ([2]; 1100 nM) | level (log10) ([2]; 3300 nM) | level (log10) ([2]; 10000 nM) | level (log10) ([3]; 6700 nM) | level (log10) ([3]; 20000 nM) | level (log10) ([4]; 1500 nM) | level (log10) ([4]; 4400 nM) | level (log10) ([4]; 13000 nM) | level (log10) ([4]; 40000 nM) | level (log10) ([5]; 1500 nM) | level (log10) ([5]; 4400 nM) | level (log10) ([5]; 13000 nM) | level (log10) ([5]; 40000 nM) | level (log10) ([6]; 6700 nM) | level (log10) ([6]; 20000 nM) | level (log10) ([6]; 60000 nM) |
| --- | --- | --- | --- | --- | --- | --- | --- | --- | --- | --- | --- | --- | --- | --- | --- | --- | --- | --- |
| SAg:CD38 | 0.0075 ± 0.018 | 0.014 ± 0.0028 | -0.0115 ± 0.0021 | -0.011 ± 0.021 | -0.005 ± 0.014 | -0.006 ± 0.0071 | -0.089 ± 0.016 | -0.003 ± 0.025 | -0.019 ± 0.017 | -0.008 ± 0.027 | -0.011 ± 0.0042 | -0.014 ± 0.018 | -0.027 ± 0.021 | -0.037 ± 0.0028 | -0.0215 ± 0.023 | -0.0175 ± 0.04 | -0.02 ± 0.034 | -0.0595 ± 0.053 |
| SAg:CD40 | -0.0095 ± 0.0078 | -0.022 ± 0.0042 | -0.009 ± 0.0071 | -0.0015 ± 0.0021 | -0.0005 ± 0.019 | -0.028 ± 0.0042 | -0.1085 ± 0.00071 | -0.0375 ± 0.023 | -0.0165 ± 0.012 | -0.009 ± 0.016 | -0.049 ± 0.014 | -0.044 ± 0.0085 | -0.072 ± 0.05 | -0.0535 ± 0.03 | -0.074 ± 0.081 | -0.013 ± 0.051 | -0.0215 ± 0.021 | -0.071 ± 0.051 |
| SAg:CD62E/E-Selectin | -0.0185 ± 0.019 | 0.0235 ± 0.0035 | -0.02 ± 0.0014 | -0.031 ± 0.02 | 0.008 ± 0.042 | -0.0165 ± 0.00071 | -0.0845 ± 0.015 | 0.0035 ± 0.043 | -0.03 ± 0.018 | 0.0025 ± 0.00071 | 0.0435 ± 0.0035 | -0.0615 ± 0.0021 | -0.124 ± 0.015 | -0.168 ± 0.059 | -0.168 ± 0.03 | 0.0085 ± 0.042 | 0.0465 ± 0.013 | 0.109 ± 0.0042 |
| SAg:CD69 | -0.032 ± 0.033 | -0.0115 ± 0.011 | -0.0135 ± 0.005 | -0.015 ± 0.0042 | -0.0095 ± 0.023 | -0.0205 ± 0.06 | -0.119 ± 0.064 | -0.0145 ± 0.029 | -0.0175 ± 0.012 | -0.004 ± 0.03 | 0.0045 ± 0.013 | -0.025 ± 0.02 | -0.054 ± 0.02 | -0.0885 ± 0.03 | -0.0865 ± 0.011 | -0.025 ± 0.057 | -0.0205 ± 0.04 | -0.043 ± 0.075 |
| SAg:CXCL8/IL-8 | -0.0085 ± 0.012 | 0.0145 ± 0.018 | -0.0095 ± 0.028 | -0.0265 ± 0.037 | 0.0195 ± 0.026 | -0.0015 ± 0.005 | -0.0505 ± 0.03 | 0.0205 ± 0.12 | -0.04 ± 0.075 | -0.001 ± 0.045 | 0.0455 ± 0.047 | -0.0245 ± 0.039 | -0.0475 ± 0.039 | -0.097 ± 0.075 | -0.137 ± 0.087 | -0.0075 ± 0.076 | -0.009 ± 0.014 | 0.071 ± 0.044 |
| SAg:CXCL9/MIG | 0.0075 ± 0.0021 | -0.0035 ± 0.0035 | -0.01 ± 0.017 | 0.008 ± 0.017 | -0.0005 ± 0.016 | -0.002 ± 0.0042 | -0.0055 ± 0.011 | -0.0015 ± 0.0092 | -0.002 ± 0.018 | -0.004 ± 0.0085 | 0.008 | 0.0095 ± 0.00071 | -0.0065 ± 0.0035 | -0.0125 ± 0.0035 | -0.005 ± 0.0099 | 0.0005 ± 0.018 | -0.008 ± 0.0028 | 0.001 ± 0.0057 |
| SAg:PBMC Cytotoxicity | -0.0045 ± 0.012 | 0.019 ± 0.0057 | 0.002 ± 0.04 | 0.024 ± 0.027 | -0.0095 ± 0.07 | 0.009 ± 0.034 | 0.0315 ± 0.0064 | 0.026 ± 0.016 | -0.022 ± 0.033 | -0.0335 ± 0.00071 | 0.01 ± 0.033 | -0.013 ± 0.054 | 0.003 ± 0.037 | -0.05 ± 0.024 | -0.0395 ± 0.019 | -0.0125 ± 0.015 | 0 ± 0.0042 | 0.0075 ± 0.0021 |
| SAg:Proliferation | 0.051 ± 0.048 | -0.004 ± 0.13 | 0.009 ± 0.041 | 0.0425 ± 0.0035 | 0.0335 ± 0.016 | -0.031 ± 0.042 | -0.0445 ± 0.036 | 0.0105 ± 0.026 | 0.0125 ± 0.029 | -0.024 ± 0.037 | 0.0325 ± 0.019 | -0.001 ± 0.034 | 0.0035 ± 0.0078 | -0.0855 ± 0.005 | -0.023 ± 0.0099 | -0.02 ± 0.054 | -0.0085 ± 0.011 | -0.0735 ± 0.0035 |
| SAg:SRB | -0.0125 ± 0.013 | 0.0045 ± 0.0035 | -0.007 ± 0.0071 | -0.013 ± 0.0042 | -0.0015 ± 0.0021 | 0.0065 ± 0.005 | -0.0515 ± 0.0064 | -0.015 ± 0.0057 | -0.0125 ± 0.00071 | -0.0005 ± 0.012 | -0.0025 ± 0.013 | 0.0105 ± 0.0092 | 0.0005 ± 0.005 | 0.005 ± 0.016 | 0.003 ± 0.025 | -0.0075 ± 0.0035 | -0.0095 ± 0.0035 | -0.0335 ± 0.011 |
